Results reported in US6740673B2, “Quarternary ammonium compounds” (UCB Farchim SA, priority 1998, dated 2004).

Tested on: cough responses induced by citric acid (1M) aerosol in conscious guinea-pigs
Experiment: Antitussive activity against citric acid aerosol-induced cough in conscious guinea-pigs
Type: in vivo, guinea-pig (male albino Dunkin-Hartley)
Details: aerosol pre-treatment at 10.0 mg/ml immediately before citric acid (1M) exposure; for inhibition of cough responses compared with vehicle: vs vehicle (distilled water), 15 minute observation period
From the text: The following method was one of the general methods available to determine the antitussive activity of the compounds of the present invention.
Male albino Dunkin-Hartley strain guinea-pigs (weight 300-400 g) were supplied by Harlan UK Ltd., Bicester, Oxon, UK.
The method used was modified from that described by Adcock J. J., Schneider C. and Smith T. W., “Effects of Morphine and a Novel Opioid Pentapeptide BW443C, on Cough, Nociception and Ventilation in the Unanaesthetized Guinea-pig”, Br. J. Pharmacol., 93, 93-100 (1988). Individual conscious guinea-pigs were placed unrestrained into a sealed purpose built perspex exposure chamber (3,000 cm^3 volume) and allowed to acclimatize prior to aerosol administration.
Cylinder air was introduced into the exposure chamber at a flow rate of 1 liter/min, maintained by a needle valve and monitored by a rotameter. From the rotameter the air passed through the cup of an ultrasonic nebulizer (DeVilbis UltraNeb 2000) which was used to generate aerosols of drug or citric acid at 0.15 ml/min. A Fleisch pneumotachograph, connected to a differential pressure transducer (Grass model PT5) was attached to the outflow from the exposure chamber and provided a measurement of airflow from the chamber. […]
Cough responses were induced by exposure to an aerosol of citric acid (1M) for 10 minutes. Animals were continuously monitored by trained observer, and the number of coughs were counted during a 15 minute period from commencement of the citric acid aerosol administration. […]
The three types of response were differentiated primarily by sound and visual observation. […] Data recorded for individual guinea-pigs on the Poh-Ne-Mah system was stored on an optical disk. Each cough was marked on the Grass polygraph paper trace, and from these record numbers, frequency and time of onset of coughs were determined. […]
Quantities of drugs were weighed out and dissolved in a vehicle. […] The sequence of pre-treatment administration was determined according to a 4×4 Latin Square design. […]

Compound | inhibition of cough responses compared with vehicle [%] | prolongation of mean latency of cough onset (time to first recorded cough) [fold]
C[N+](C)(CC(=O)Nc1ccccc1)CC(=O)N1CCc2ccccc21.[Cl-] [Compound 2, N-[(1-Indolinyl)carbonylmethyl]-N-(phenylcarbamoylmethyl) dimethylammonium chloride] | 56 | 
CC[N+](CC)(CC)CC(=O)N1CCc2ccccc21 [Compound 3, N-[(1-Indolinyl)carbonylmethyl]triethylammonium chloride] | 36 | 2.5
